Key:
HEK293sieSTAT3(Y640F) [1] = assay: drug sensitivity score (DSS), cytotoxicity CellTox Green (DSS (dimensionless)); higher = more cytotoxic; extreme values may be limits of the assay; settings: 72 h; STAT3 variant: Y640F (constitutively active)
Procedure, shortened: (§1)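 HEK293 cells carrying a STAT3-dependent luciferase reporter and overexpressing wild-type or mutant STAT3 (20 μl at 100,000 cells/ml) were added to compounds acoustically pre-plated at 5 concentrations in 10-fold dilutions in 384-well plates. After 72 hours at 37°C and 5% CO2, CellTox Green fluorescence (485/520 nm) and then CellTiter-Glo luminescence were read on a PHERAstar FS. Values were normalised to negative and positive control wells, and a drug sensitivity score based on dose-response curve area was computed in Breeze. Each value comes from one representative of two experiments.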

HEK293sieSTAT3(wt) [2] = assay: as above; settings: 72 h; STAT3 variant: wild type
Procedure, shortened: as §1

HEK293sieSTAT3(Y640F) [3] = assay: drug sensitivity score (DSS), viability CellTiter-Glo (DSS (dimensionless)); higher = more growth inhibition; extreme values may be limits of the assay; settings: 72 h; STAT3 variant: Y640F (constitutively active)
Procedure, shortened: as §1

HEK293sieSTAT3(wt) [4] = assay: as above; settings: 72 h; STAT3 variant: wild type
Procedure, shortened: as §1

| Structure (SMILES) | drug sensitivity score (HEK293sieSTAT3(Y640F) [1]) | drug sensitivity score (HEK293sieSTAT3(wt) [2]) | drug sensitivity score (HEK293sieSTAT3(Y640F) [3]) | drug sensitivity score (HEK293sieSTAT3(wt) [4]) |
| --- | --- | --- | --- | --- |
| Cc1nc(=O)c2cc(CN(C)c3ccc(C(=O)N[C@@H](CCC(=O)O)C(=O)O)s3)ccc2[nH]1 [Raltitrexed] (top concentration tested 1000 nM) | 0 | 2.49 | 20.1 | 15.1 |
| Nc1nc(Nc2ccc3c(c2)CC[C@@H](N2CCCC2)CC3)nn1-c1cc2c(nn1)-c1ccccc1CCC2 [BGB324] (top concentration tested 10000 nM) | 6.14 | 11.9 | 10.2 | 12 |
| O=C(Nc1ccc2[nH]nc(-c3ccncc3)c2c1)[C@@H]1CCN(CC(=O)N2CCN(c3ccc(-c4ncccn4)cc3)CC2)C1 (top concentration tested 10000 nM) | 0.69 | 0 | 3.37 | 1.44 |
| Cc1[nH]c2ccccc2c1CCNCc1ccc(/C=C/C(=O)NO)cc1 [Panobinostat] (top concentration tested 1000 nM) | 11.6 | 17.8 | 20.6 | 20.4 |
| CC(=O)[C@]1(O)Cc2c(O)c3c(c(O)c2[C@@H](O[C@H]2C[C@H](N)[C@H](O)[C@H](C)O2)C1)C(=O)c1ccccc1C3=O [Idarubicin] (top concentration tested 1000 nM) | 7.05 | 10.7 | 27.1 | 26.9 |
| CC[C@]1(O)C[C@H]2CN(CCc3c([nH]c4ccccc34)[C@@](C(=O)OC)(c3cc4c(cc3OC)N(C=O)[C@H]3[C@@](O)(C(=O)OC)[C@H](OC(C)=O)[C@]5(CC)C=CCN6CC[C@]43[C@@H]65)C2)C1 [Vincristine] (top concentration tested 1000 nM) | 6.72 | 16.2 | 21.2 | 23.6 |
| Cn1nccc1Nc1nccc(-c2ccn([C@H](CO)c3ccc(Cl)c(F)c3)c(=O)c2)n1 [GDC-0994] (top concentration tested 10000 nM) | 0 | 0 | 8.52 | 6.43 |
| COc1cc(OC2CCN(C)CC2)ccc1Nc1ncc2c(n1)n(C1CCCC1)c(=O)n2C [AZ 3146] (top concentration tested 10000 nM) | 4.52 | 11.4 | 8.94 | 11.3 |
| NCC(=O)Nc1ccc(-n2nc(C(F)(F)F)cc2-c2ccc3c(ccc4ccccc43)c2)cc1 (top concentration tested 25000 nM) | 5.9 | 7.25 | 13.5 | 16.3 |
| C=CC(=O)Nc1cccc(Nc2nc(Nc3ccc(OCCOC)cc3)ncc2F)c1 [Spebrutinib] (top concentration tested 1000 nM) | 0 | 0 | 2.4 | 0 |
| CCNC(=O)Nc1ccc(-c2nc3c(c(N4CCOC[C@@H]4C)n2)CCN(C2COC2)C3)cc1 [RG-7603] (top concentration tested 2500 nM) | 0 | 0 | 6.22 | 8.47 |
| O=P1(N(CCCl)CCCl)NCCCO1 (stereo not given) [Cyclophosphamide] (top concentration tested 40000 nM) | 0 | 0 | 0 | 0 |
| O=C(/C=C/c1cccc(S(=O)(=O)Nc2ccccc2)c1)NO [Belinostat] (top concentration tested 10000 nM) | 8.83 | 8.71 | 16.9 | 13.1 |
| CN[C@@H](C)C(=O)N[C@H]1CN(C(=O)CC(C)C)CC[C@H]2CC[C@@H](C(=O)NC(c3ccccc3)c3ccccc3)N2C1=O [AT-406] (top concentration tested 10000 nM) | 12.6 | 33.2 | 8.75 | 17.9 |
| Cn1cc(C2=C(c3cn(C4CCN(Cc5ccccn5)CC4)c4ccccc34)C(=O)NC2=O)c2ccccc21 [Enzastaurin] (top concentration tested 10000 nM) | 0 | 0 | 1.73 | 1.34 |

— the supplement of paper PMC7108870
